Measurements from patent publication US8524978B2, “Composition for production of plant body having improved sugar content, and use thereof” (Japan Science and Technology Agency, priority 2007, dated 2013).
“Also recorded” adds a separate entry of the source.

Assays:
Type in all cases: in vivo
Lycopersicum esculentum = assay: Sugar content determination of Lycopersicum esculentum fruit with refractometer (Example 2); conditions: 0.5 mM applied as in Example 1; compared to Cont and Cont2 Sunny conditions; ANOVA 5%
Source text: Cultivated were Lycopersicum esculentum plants to which GSSG or GSH was applied by the method described in Example 1. Then, obtained fruit of the plants was subjected to sugar content determination using “Pocket” Refractometer APAL-1 (ATAGO CO., LTD.).
For comparison, Lycopersicum esculentum plants were cultivated under two types of conditions (referred to as “Cont” and “Cont2 Sunny”). In the Cont condition, Lycopersicum esculentum plants were cultivated by the same method as in Example 1, except that GSSG and GSH were not applied. In the Cont2 Sunny condition, a Lycopersicum esculentum plant was not applied with GSSG or GSH and was independently cultivated at a site sufficiently irradiated with sunlight so that illuminance on the Lycopersicum esculentum plant becomes 100%. In the Cont condition and a condition in which GSSG or GSH was applied, the plants were planted at intervals of 40 cm to 50 cm. In this case, a plant may intercept light irradiating another plant. Therefore, illuminance on such plants becomes less than 100%.
In the condition in which GSSG was applied, the condition in which GSH is applied, and the Cont condition, three Lycopersicum esculentum plants were cultivated, respectively. In the Cont2 Sunny condition, one Lycopersicum esculentum plant was cultivated. […]

[1] = tested on: Zea mays L. var. saccharata Sturt; assay: Cultivation of Zea mays L. var. saccharata Sturt with GSSG leaf spray, sensory test (Example 11)
Source text: In the present example, Zea mays L. var. saccharata Sturt was cultivated. First, a Zea mays L. var. saccharata Sturt seed (TAKII & CO. Ltd., product number: Canberra 86) was sown in vermiculite (ASAHI INDUSTRIES Co., LTD.). Two weeks after sowing, a Zea mays L. var. saccharata Sturt plant was transplanted to a hydroponic culture pot described in Example 1. To the plant, 3 g of Kumiai phosphorate ammonium nitrate potassium S-604 (Chisso Asahi Fertilizer Co., Ltd.) was applied as an additional fertilizer 4 weeks and 6 weeks after the sowing.
In the 5th, 6th, 7th, and 8th week after the sowing, 0.5 mM GSSG (dissolved in 0.1% Tween80 serving as a spreading agent) was sprayed onto a leaf surface. For comparison, a Zea mays L. var. saccharata Sturt plant was cultivated by the same method as in the present example, except that Tween80, but not GSSG, was applied, and fruit thereof was harvested.
Fruit was harvested 86 days after the sowing and subjected to a sensory test of sugar content. As a result, it was determined that fruit of the plant applied with GSSG increased in sugar content compared to that of the plant applied with no GSSG. Further, the fruit obtained was subjected to sugar content determination using “Pocket” Refractometer APAL-1 (ATAGO CO., LTD.). For comparison, the fruit of the plant applied with no GSSG was also subjected to the sugar content determination. […] In FIG. 8, the vertical scale indicates sugar content (Brix, unit: %).
It was also determined that the plant applied with GSSG increased in size and number of fruit. Further, it was determined that the fruit of the plant applied with GSSG was already able to be harvested 70 days after the sowing.

Fragaria ananassa [2] = assay: Cultivation of Fragaria ananassa with GSSG or GSH, sensory tests of fruit (Example 10); conditions: 63 days
Procedure: In the present example, Fragaria ananassa was cultivated with use of GSSG or GSH. Details of cultivation are described below.
(§1) First, Fragaria ananassa seedlings were transplanted to a planter. In the planter, 6 L of vermiculite (ASAHI INDUSTRIES Co., LTD.), 3 L of KUREHA horticultural soil (KUREHA CORPORATION), and 3 L of vermiculite were layered as a lower, middle, and upper layers, respectively.
(§2) During cultivation of Fragaria ananassa plants, 50 mL of 0.2 mM or 0.5 mM GSSG or 50 mL of 0.4 mM or 0.5 mM GSH (adjusted with 0.1N NaOH to be at pH7) was applied once a week at a root per plant. The plants were grown for 63 days without being subjected to bud removal. For comparison, a Fragaria ananassa plant was grown under the same condition, except that GSSG and GSH were not applied. To the plants of any condition, 3 g of Kumiai phosphorate ammonium nitrate potassium S-604 (Chisso Asahi Fertilizer Co., Ltd.) was applied as an additional fertilizer once in 2 weeks.
Next, the fruit harvested was subjected to sensory tests of sugar content and the like. As a result, it was determined that fruit of the plant applied with GSSG increased in sugar content and decreased in acidity compared to that of the plant not applied with GSSG or GSH. Further, it was determined that the plant applied with GSSG increased in number of fruit. It was also determined that fruit of the plant applied with GSH increased in sugar content and acidity.

Fragaria ananassa [3] = assay: Sugar content determination of Fragaria ananassa fruit with refractometer (Example 10); conditions: 50 mL of 0.2 or 0.5 mM GSSG, or 0.4 or 0.5 mM GSH, once a week at root; significance level 5%
Procedure: as §1, §2
Further, the fruit obtained was subjected to sugar content determination using “Pocket” Refractometer APAL-1 (ATAGO CO., LTD.). For comparison, fruit not applied with GSSG or GSH was also subjected to the sugar content determination. […] In FIG. 7, the vertical scale indicates sugar content (Brix, unit: %).

Citrus unshiu = Citrus unshiu leaf coating with GSSG, sensory test of fruit (Example 9); conditions: leaf surface coated with 0.5 mM one week before harvest
Procedure: In the present example, Citrus unshiu was cultivated. Specifically, one week before an expected date of harvesting Citrus unshiu fruit, a surface of a leaf on a branch having the fruit to be harvested was coated with 0.5 mM GSSG. The fruit was harvested on the expected date.
Next, the fruit harvested was subjected to a sensory test of sugar content. As a result, it was determined that the fruit applied with GSSG increased in sugar content and decreased in acidity. Further, it was determined that the fruit applied with GSSG increased in weight. Furthermore, the fruit obtained was subjected to sugar content determination using “Pocket” Refractometer APAL-1 (ATAGO CO., LTD.). For comparison, fruit applied with no GSSG was also subjected to the sugar content determination. […] In FIG. 6, the vertical scale indicates sugar content (Brix, unit: %).

[4] = 0.5 mM in 0.1% Tween80 sprayed onto leaf surface in weeks 5-8

## oxidized glutathione [GSSG]
Lycopersicum esculentum
  sugar content of fruit (Brix): significantly increased; also recorded: extremely high sugar content
[1]; [4]
  number of fruit: increased
  size of fruit: increased
  time at which fruit was already able to be harvested: 70 days after the sowing
[1]; 0.5 mM in 0.1% Tween80 sprayed onto leaf surface in weeks 5-8 after sowing, harvest 86 days, vs Tween80 only
  sugar content of fruit (sensory test): increased
Fragaria ananassa [2]; 50 mL of 0.2 or 0.5 mM GSSG once a week at root
  number of fruit: increased
Fragaria ananassa [2]; 50 mL of 0.2 or 0.5 mM GSSG, or 0.4 or 0.5 mM GSH, once a week at root
  acidity of fruit (sensory test): decreased
Fragaria ananassa [2]; 50 mL of 0.2 or 0.5 mM GSSG, or 0.4 or 0.5 mM GSH, once a week at root, vs plant not applied
  sugar content of fruit (sensory test): increased
Fragaria ananassa [3]
  sugar content of fruit (Brix), ANOVA versus fruit not applied: significant difference
Citrus unshiu
  acidity of fruit (sensory test): decreased
  sugar content of fruit (sensory test): increased
  weight of fruit: increased
